Data from patent US20090312280A1.

What was measured:
HT29 (Colon) = test: cell survival / MTT combination cytotoxicity; format: cell-based, human; conditions: HT29; IC50 cytotoxic agent alone / IC50 combination; Compound 1 at 8x EC50 (360 nM)
Colo205 (Colon) = test: cell survival / MTT combination cytotoxicity; format: cell-based, human; conditions: Colo205; IC50 cytotoxic agent alone / IC50 combination; Compound 1 at 8x EC50 (360 nM)
PC-3 (Prostate) = test: cell survival / MTT combination cytotoxicity; format: cell-based, human; conditions: PC-3; IC50 cytotoxic agent alone / IC50 combination; Compound 1 at 8x EC50 (360 nM)
MDA-MB-231 (Breast) = test: cell survival / MTT combination cytotoxicity; format: cell-based, human; conditions: IC50 cytotoxic agent alone / IC50 combination, Compound 1 at 8x EC50 (360 nM)
K562 (Leukemia) = test: cell survival / MTT combination cytotoxicity; format: cell-based, human; conditions: IC50 cytotoxic agent alone / IC50 combination, Compound 1 at 4x EC50 (180 nM)
[1] = test system: Colo205 human colon carcinoma xenografts; test: in vivo chemopotentiation, Colo205 xenograft; parameters: species or system mice
Description: Experiments 1 to 39 were conducted in mice xenografts. Experiments 40-42 were conducted in rat xenografts. Specifically, irinotecan combination studies were conducted in HT29 and Colo205. Gemcitabine combination studies were conducted in Colo205. Docetaxel combination studies were conducted in Colo205.
Gemcitabine and irinotecan are DNA directed cytotoxics known to induce checkpoint activation and subsequent S/G2M-phase arrest. […] Docetaxel is an antimitotics where recent discoveries describe a novel function for CHK1 in the mitotic checkpoint.

[2] = Exp 1, gemcitabine 120 mg/kg IP Q3d×4, Compound 1 0 mg/kg
[3] = Exp 2, gemcitabine 120 mg/kg IP Q3d×4 + Compound 1 4 mg/kg IP Q3d×4 24 h after
[4] = Exp 3, gemcitabine 120 mg/kg IP Q3d×4 + Compound 1 8 mg/kg IP Q3d×4 24 h after
[5] = Exp 4, gemcitabine 120 mg/kg IP Q3d×4 + Compound 1 12 mg/kg IP Q3d×4 24 h after
[6] = Exp 5, gemcitabine 120 mg/kg IP Q3d×4 + Compound 1 20 mg/kg IP Q3d×4 24 h after
[7] = Exp 6, gemcitabine 120 mg/kg IP Q3d×4 + Compound 1 24 mg/kg IP Q3d×4 24 h after
[8] = Exp 7, gemcitabine 120 mg/kg IP Q3d×4 + Compound 1 40 mg/kg IP Q3d×4 24 h after

With `Nc1ccn([C@@H]2O[C@H](CO)[C@@H](O)C2(F)F)c(=O)n1` [Gemcitabine] the “PF50 (Potentiation Factor50)” value (HT29 (Colon)) was 9, the “PF50 (Potentiation Factor50)” value (Colo205 (Colon)) was 11.3 and the “PF50 (Potentiation Factor50)” value (PC-3 (Prostate)) was 12.2. For the same compound, the “PF50 (Potentiation Factor50)” value (MDA-MB-231 (Breast)) was 3.6, the “PF50 (Potentiation Factor50)” value (K562 (Leukemia)) was 5.6 and the “% TGI” value [1, 2] was 58%. For the same compound, the “Growth delay” value [1, 2] was 8 days, the “% TGI” value [1, 3] was 58% and the “Growth delay” value [1, 3] was 8 days. The “% TGI” value [1, 4] was 63%, the “% poten TGI” value [1, 4] was 12% and the “Growth delay” value [1, 4] was 8 days. For the same compound, the “% TGI” value [1, 5] was 68%, the “% poten TGI” value [1, 5] was 23% and the “Growth delay” value [1, 5] was 8.5 days. The “% TGI” value [1, 6] was 76%, the “% TTP” value [1, 6] was 17% and the “% poten TGI” value [1, 6] was 43%. The “Growth delay” value [1, 6] was 12 days, the “% TGI” value [1, 7] was 81% and the “% TTP” value [1, 7] was 17%. The “% poten TGI” value [1, 7] was 55%, the “Growth delay” value [1, 7] was 12 days and the “% TGI” value [1, 8] was 90%. For the same compound, the “% TTP” value [1, 8] was 50%, the “% poten TGI” value [1, 8] was 75% and the “Growth delay” value [1, 8] was 20 days.
In the case of `CCc1c2c(nc3ccc(O)cc13)-c1cc3c(c(=O)n1C2)COC(=O)[C@]3(O)CC` [SN-38], the “PF50 (Potentiation Factor50)” value (HT29 (Colon)) is reported as 3.7, the “PF50 (Potentiation Factor50)” value (Colo205 (Colon)) is reported as 2.1 and the “PF50 (Potentiation Factor50)” value (PC-3 (Prostate)) is reported as 1.3. For the same compound, the “PF50 (Potentiation Factor50)” value (MDA-MB-231 (Breast)) was 2.4 and the “PF50 (Potentiation Factor50)” value (K562 (Leukemia)) was 1.9.
